Assay results from patent US10786484B2, “Mono- or di-substituted indole derivatives as dengue viral replication inhibitors” (Janssen Pharmaceuticals, Inc., priority 2015, dated 2020).
Read-outs that look alike come from different tables or passages of the source.

Tests used:
DENV-1 strain TC974#666 = assay: Tetravalent RT-qPCR assay Protocol A, serotype 1; assay type: cell-based; details: Dengue virus, DENV1, 72 h; RT-qPCR serotype 1 TC974#666, Vero cells, day 3
Method: (§1) The antiviral activity of the compounds of the invention was tested against DENV-1 strain TC974#666 (NCPV), DENV-2 strain 16681, DENV-3 strain H87 (NCPV) and DENV-4 strains H241 (NCPV) and EDEN (SG/06K2270DK1/2005; GenBank accession number QG398256) in a RT-qPCR assay. Therefore, Vero cells were infected with either DENV-1, or -2, or -3, or -4 in the presence or absence of test compounds. At day 3 post-infection, the cells were lysed and cell lysates were used to prepare cDNA of both a viral target (the 3′UTR of DENV; Table 2) and a cellular reference gene (β-actin, Table 2). Subsequently, a duplex real time PCR was performed on a Lightcycler480 instrument. The generated Cp value is inversely proportional to the amount of RNA expression of these targets. Inhibition of DENV replication by a test compound results in a shift of Cp's for the 3′UTR gene. On the other hand, if a test compound is toxic to the cells, a similar effect on β-actin expression will be observed. The comparative ΔΔCp method is used to calculate EC50, which is based on the relative gene expression of the target gene (3′UTR) normalized with the cellular housekeeping gene (β-actin). In addition, CC50 values are determined based on the Cp values acquired for the housekeeping gene β-actin.
(§2) The culture medium consisted of minimal essential medium supplemented with 2% of heat-inactivated fetal calf serum, 0.04% gentamycin (50 mg/mL) and 2 mM of L-glutamine. Vero cells, obtained from ECACC, were suspended in culture medium and 75 μL/well was added in 96-well plates (10000 cells/well), which already contain the antiviral compounds. […] In addition, each plate contains wells which are assigned as virus controls (containing cells and virus in the absence of compound) and cell controls (containing cells in the absence of virus and compound). Once the cells were added in the plates, the plates were incubated in a fully humidified incubator (37° C., 5% CO2) until the next day. Dengue viruses serotype-1, 2, 3 and 4 were diluted in order to obtain a Cp of ˜22-24 in the assay. Therefore, 25 μL of virus suspension, was added to all the wells containing test compound and to the wells assigned as virus control. In parallel, 25 μL of culture medium was added to the cell controls. Next, the plates were incubated for 3 days in a fully humidified incubator (37° C., 5% CO2). After 3 days, the supernatant was removed from the wells and the cells were washed twice with ice-cold PBS (−100 μL). The cell pellets within the 96-well plates were stored at −80° C. for at least 1 day. Next, RNA was extracted using the Cells-to-CT™ lysis kit, according to the manufacturer's guideline (Life Technologies). The cell lysates can be stored at −80° C. or immediately used in the reverse transcription step.
(§3) In preparation of the reverse transcription step, mix A (table 3A) was prepared and 7.57 μL/well was dispensed in a 96-well plate. After addition of 5 μL of the cell lysates, a five minute denaturation step at 75° C. was performed (table 3B). Afterwards, 7.43 μL of mix B was added (table 3C) and the reverse transcription step was initiated (table 3D) to generate cDNA.
(§4) Finally, a RT-qPCR mix was prepared, mix C (table 4A), and 22.02 μL/well was dispensed in 96-well LightCycler qPCR plates to which 3 μL of cDNA was added and the qPCR was performed according to the conditions in table 4B on a LightCycler 480.
(§5) Using the LightCycler software and an in-house LIMS system, dose response curves for each compound were calculated and the half maximal effective concentration (EC50) and the half maximal cytotoxic concentration (CC50) were determined (Tables 5-8).

DENV-2 strain 16681 = assay: Tetravalent RT-qPCR assay Protocol A, serotype 2; assay type: cell-based; details: Dengue virus, DENV2, 72 h; RT-qPCR serotype 2 16681, Vero cells, day 3
Method: as §1, §2, §3, §4, §5

[1] = system: DENV-4 strain EDEN (SG/06K2270DK1/2005); assay: Tetravalent RT-qPCR assay Protocol A, serotype 4 EDEN; assay type: cell-based; details: Dengue virus, DENV4, 72 h; RT-qPCR serotype 4 EDEN, Vero cells, day 3
Method: as §1, §2, §3, §4, §5

Vero cells [2] = details: African green monkey
DENV-3 strain H87 = assay: Tetravalent RT-qPCR assay Protocol A, serotype 3; assay type: cell-based; details: Dengue virus, DENV3, 72 h; RT-qPCR serotype 3 H87, Vero cells, day 3
Method: as §1, §2, §3, §4, §5

[3] = system: DENV-2 16681 strain labeled with eGFP; assay: DENV-2 antiviral assay (eGFP fluorescence read-out in Vero cells); assay type: cell-based, Dengue virus; details: DENV-2 16681 eGFP, MOI 0.5, 3 days
Method in brief: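 Vero cells (2500/well) pre-plated with compound (9-step 5-fold series), infected next day with eGFP-labeled DENV-2 16681 at MOI 0.5 in MEM with 2% FCS; 3 days at 37° C. eGFP fluorescence read at 488 nm; inhibition versus virus and cell controls, EC50 by linear interpolation.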

DENV-4 strain H241 = assay: Tetravalent RT-qPCR assay Protocol A, serotype 4 H241; assay type: cell-based; details: Dengue virus, DENV4, 72 h; RT-qPCR serotype 4 H241, Vero cells, day 3
Method: as §1, §2, §3, §4, §5

in vitro = assay type: cell-based; details: African green monkey, CC50
Method: as §1, §2, §5

Vero cells [4] = assay: in vitro; assay type: cell-based; details: African green monkey, 3 days
Method: as §1, §2, §5

Compound	EC50 (DENV-1 strain TC974#666) [nM]	EC50 (DENV-2 strain 16681) [nM]	EC50 [1] [nM]	CC50 (Vero cells [2]) [nM]	EC50 (DENV-3 strain H87) [nM]	EC50 [3] [nM]	EC50 (DENV-4 strain H241) [nM]	CC50 at 3 days (in vitro) [nM]	CC50 (Vero cells [4]) [nM]
COc1cc(NC(C(=O)c2c[nH]c3cc(F)c(F)cc23)c2ccc(F)cc2OCCO)cc(S(C)(=O)=O)c1 (single isomer, unassigned) [Compound 5A, 1-(5,6-difluoro-1H-indol-3-yl)-2-(4-fluoro-2-(2-hydroxyethoxy)phenyl)-2-((3-methoxy-5-(methylsulfonyl)phenyl)-amino)ethanone]	4.1	0.71	3.7	3400	61	0.51	180	> 2500	–
COc1cc(NC(C(=O)c2c[nH]c3cc(OC)c(OC(F)(F)F)cc23)c2ccc(F)cc2OCCO)cc(S(C)(=O)=O)c1 (single isomer, unassigned) [Compound 11B, 2-(4-fluoro-2-(2-hydroxyethoxy)phenyl)-2-((3-methoxy-5-(methyl-sulfonyl)phenyl)amino)-1-(6-methoxy-5-(trifluoromethoxy)-1H-indol-3-yl)ethanone]	0.6	0.14	–	2400	7.3	0.2	34	> 2500	> 2500
